Like-named read-outs stand apart in the source and are kept apart here.
Assays:
Microsporum canis = experiment: MIC on dermatophytes; format: cell-based; conditions: read-out: Minimal Inhibitory Concentration
Description: (§1) Mycelium fragments, micro and macroaleuriospores are harvested from 7-day fungal cultures grown at 30 ° C. in Potato Dextrose agar by washing them with Sabouraud broth and 0.5% Tween 80. After a coarse filtration and washing, the fungal suspension is resuspended in Yeast Nitrogen Base supplemented with asparagine and glucose (YNBs) to yield a final concentration of 1.0×10^5 infective units/ml in a microtiter plate. The substances (0.3 log dilutions in Y.N.B.s.) are added to the fungal suspensions in order to generate a range of final concentrations from 0.19 to 100 mcg/ml. The microtiter plates are then incubated at 30° C. for 96-120 hours.

Epidermoph. floccosum = experiment: MIC on dermatophytes; format: cell-based; conditions: read-out: Minimal Inhibitory Concentration
Description: as §1

Tr. quinckeanum = experiment: MIC on dermatophytes; format: cell-based; conditions: Tr. quinckeanum NCPF 309, lab collection; read-out: Minimal Inhibitory Concentration
Description: as §1

Tr. mentagrophytes = experiment: MIC on dermatophytes; format: cell-based; conditions: Trichophyton mentagrophytes, read-out: Minimal Inhibitory Concentration
Description: as §1

Tr. rubrum = experiment: MIC on dermatophytes; format: cell-based; conditions: Trichophyton rubrum, read-out: Minimal Inhibitory Concentration
Description: as §1

mouse scarified skin = experiment: Dermal tolerability after repeated treatments (10 days) on mouse scarified skin; format: in vivo, CD1 mice; conditions: 1% gel; for Cracking (C), mean score / Desquamation (D), mean score / Erythema (E), mean score: scale 0-3, 50 mg/day
Description: Male CD1 mice (C. RIVER), aged 6 weeks, were used (5 animals per group).
Substance formulations (1% of test article) were prepared in gel (Hydroxyethyl-cellulose, 2.5 gr.; Glycerin, 7.0 gr.; Propylene Glycol, 7.0 gr.; water up to 100 ml).
The central dorsal zone of the animals was first shaved, and then gently abraded with a scalpel blade. Treatment was performed 1 day following the dermal abrasion by administering 50 mg of each substance formulation once a day, for 10 consecutive days. The treated skin areas were examined at 5, 7, 9, and 11 days following scarification. The evaluation was based upon grading of the lesions as […] (E), DESQUAMATION (D), and CRACKING (C), according to the following scale:
The mean of the values of each parameter in the same animal group allowed us to evaluate the tissue damage provoked by the substance under examination.

C. krusei = experiment: MIC on yeast-like strains; format: cell-based; conditions: Pichia kudriavzevii; C. krusei ISS 1, lab collection; read-out: Minimal Inhibitory Concentration
Description: (§2) Overnight yeast cultures in Sabouraud broth are appropriately washed and diluted in Yeast Nitrogen Base supplemented with asparagine and glucose (Y.N.B.s.) to yield approximately 5.0×10^4 CFU/ml in microtiter wells. Substance dilutions (0.3 log) in Y.N.B.s. are added to these suspensions to a final concentration range from 0.19 to 100 mcg/ml. Microtiter plates are then incubated at 35° C. for 24-48 hours (See PFALLER M., RINALDI M. G., […] J. M., BARTLETT M. S., BODY B. A., ESPINEL-INGROFF A., FROMTLING R. A., HALL G. S., HUGHES G. E., ODDS F. C., SUGAR A. M., Collaborative investigator of variables in susceptibility testing of yeasts, Ant. Agent and Chemoth., 34, 9:1648-1656, 1990. COOK R., McINTYRE K. A., […] J. M., Effects of incubation temperature, inoculum size, and medium on agreement of macro and microdilution broth susceptibility test, results for yeasts, Ant. Agent and Chemoth., 34, 8:1542-1545, 1990. […] E., PAETZNICK V., BODEY G. P., Fluconazole susceptibility testing of "Candida albicans" microtiter method that is indipendent of inoculum size, temperature, and time of reaching, Ant. Agent and Chemoth., 35, 8:1641-1646, 1991).

S. cerevisiae = experiment: MIC on yeast-like strains; format: cell-based; conditions: Saccharomyces cerevisiae, ATCC7752; S. cerevisiae ATCC 7752, lab collection; read-out: Minimal Inhibitory Concentration
Description: as §2

C. tropicalis = experiment: MIC on yeast-like strains; format: cell-based; conditions: Candida tropicalis; C. tropicalis ISS 1, lab collection; read-out: Minimal Inhibitory Concentration
Description: as §2

Candida albicans = experiment: MIC on yeast-like strains; format: cell-based; conditions: read-out: Minimal Inhibitory Concentration
Description: as §2

[1] = Microsporum canis IDI D 0238, clinical isolate (tricophytosis, right arm; prior Nerisona)
[2] = Microsporum canis IDI D 1011, clinical isolate (eczema, neck; prior Gentalyn and cortisone)
[3] = Microsporum canis IDI D 1123, clinical isolate (epidermophytosis, back; prior Gentalyn)
[4] = Microsporum canis IMM 3868, lab collection
[5] = Epidermoph. floccosum IDI D 0011, clinical isolate (epidermophytosis, foot interdigital)
[6] = Epidermoph. floccosum SG 3 III, clinical isolate
[7] = Epidermoph. floccosum SG 6 II, clinical isolate (Tinea pedis)
[8] = Tr. mentagrophytes IDI D 1027, clinical isolate (impetiginous eczema, chin)
[9] = Tr. mentagrophytes IDI D 1049, clinical isolate
[10] = Tr. mentagrophytes IDI D 1101, clinical isolate (epidermatomycosis, face)
[11] = Tr. mentagrophytes SG 3 I, clinical isolate (Tinea pedis)
[12] = Tr. mentagrophytes SG 4 II, clinical isolate (Tinea cruris)
[13] = Tr. mentagrophytes SG 5 III, clinical isolate (Tinea pedis)
[14] = Tr. mentagrophytes SG 8 II, clinical isolate (Tinea cruris)
[15] = Tr. rubrum IDI D 0222, clinical isolate (onychomycosis, left and right big toes)
[16] = Tr. rubrum IDI D 0252, clinical isolate (impetigo, left arm; prior Rifocin)
[17] = Tr. rubrum IDI D 0261, clinical isolate (dyshidrotic eczema, right foot)
[18] = Tr. rubrum IDI D 1017, clinical isolate (onychomycosis, right big toe; prior Azolmen)
[19] = Tr. rubrum IDI D 1150, clinical isolate (epidermophytosis; prior Gentalyn)
[20] = Tr. rubrum IDI D 1155, clinical isolate
[21] = Tr. rubrum SG 13 III, clinical isolate (Tinea pedis)
[22] = C. albicans 562, lab collection
[23] = C. albicans ISS 1, lab collection
[24] = Candida albicans 1786/94, clinical isolate
[25] = Candida albicans IDI D 0101, clinical isolate (eczema, internatal; prior Versus)
[26] = Candida albicans IDI D 0297, clinical isolate (vulvar vaginitis; prior Pevaryl)
[27] = Candida albicans IDI D 1046, clinical isolate (glossitis; prior Daktarin)
[28] = Candida albicans IDI D 1056, clinical isolate
[29] = Candida albicans IDI D 1088, clinical isolate
[30] = Candida albicans IDI D 3575, clinical isolate
[31] = Candida albicans SG 2 III, clinical isolate (vaginitis)
[32] = Candida albicans SG 7 I, clinical isolate (Tinea unguis, hands)
[33] = Candida albicans SG 14 III, clinical isolate (vaginitis)

CCCCCCCCCCCOC(=O)C[C@H](C[N+](C)(C)C)OC(=O)CC(C)C [ST 1103, isovaleryl L-carnitine undecyl ester methanesulfonate, reference compound]
0.4: Desquamation (D), mean score (mouse scarified skin; day +5) | Desquamation (D), mean score (mouse scarified skin; day +7) | Erythema (E), mean score (mouse scarified skin; day +7)
1.2: Erythema (E), mean score (mouse scarified skin; day +5)
3.12 µg/mL: MIC (Tr. rubrum; [20]) | MIC (C. krusei) | MIC (S. cerevisiae) | MIC (C. tropicalis) | MIC (Candida albicans; [22]) | MIC (Candida albicans; [26]) | MIC (Candida albicans; [27]) | MIC (Candida albicans; [28]) | MIC (Candida albicans; [29]) | MIC (Candida albicans; [32])
6.25 µg/mL: MIC (Tr. quinckeanum) | MIC (Candida albicans; [24]) | MIC (Candida albicans; [25]) | MIC (Candida albicans; [30]) | MIC (Candida albicans; [31]) | MIC (Candida albicans; [33])
25 µg/mL: MIC (Microsporum canis; [1]) | MIC (Epidermoph. floccosum; [6]) | MIC (Tr. rubrum; [16])
0: Cracking (C), mean score (mouse scarified skin; day +5) | Cracking (C), mean score (mouse scarified skin; day +7) | Cracking (C), mean score (mouse scarified skin; day +9) | Desquamation (D), mean score (mouse scarified skin; day +9) | Erythema (E), mean score (mouse scarified skin; day +9) | Cracking (C), mean score (mouse scarified skin; day +11) | Desquamation (D), mean score (mouse scarified skin; day +11) | Erythema (E), mean score (mouse scarified skin; day +11)
1.56 µg/mL: MIC (Candida albicans; [23])
12.5 µg/mL: MIC (Microsporum canis; [2]) | MIC (Microsporum canis; [3]) | MIC (Microsporum canis; [4]) | MIC (Epidermoph. floccosum; [5]) | MIC (Epidermoph. floccosum; [7]) | MIC (Tr. mentagrophytes; [8]) | MIC (Tr. mentagrophytes; [9]) | MIC (Tr. mentagrophytes; [10]) | MIC (Tr. mentagrophytes; [11]) | MIC (Tr. mentagrophytes; [12]) | MIC (Tr. mentagrophytes; [13]) | MIC (Tr. mentagrophytes; [14]) | MIC (Tr. rubrum; [15]) | MIC (Tr. rubrum; [17]) | MIC (Tr. rubrum; [18]) | MIC (Tr. rubrum; [19]) | MIC (Tr. rubrum; [21])

CCCCCCCCCCC(=O)O[C@H](CC(=O)OCc1ccc(COC(=O)C[C@H](C[N+](C)(C)C)OC(=O)CCCCCCCCCC)cc1)C[N+](C)(C)C [ST 1226, bis(undecanoyl L-carnitine chloride)p-xylilene diester]
6.25 µg/mL: MIC (Epidermoph. floccosum; [6]) | MIC (Epidermoph. floccosum; [7])
better tolerated than ST1103: dermal tolerability compared with ST 1103 (mouse scarified skin; 10 days)
3.12 µg/mL: MIC (Microsporum canis; [2]) | MIC (Tr. mentagrophytes; [8]) | MIC (Tr. mentagrophytes; [13]) | MIC (C. krusei) | MIC (Candida albicans; [22]) | MIC (Candida albicans; [23]) | MIC (Candida albicans; [24]) | MIC (Candida albicans; [26]) | MIC (Candida albicans; [27]) | MIC (Candida albicans; [29]) | MIC (Candida albicans; [30]) | MIC (Candida albicans; [32])
0: Cracking (C), mean score (mouse scarified skin; day +5) | Desquamation (D), mean score (mouse scarified skin; day +5) | Cracking (C), mean score (mouse scarified skin; day +7) | Desquamation (D), mean score (mouse scarified skin; day +7) | Erythema (E), mean score (mouse scarified skin; day +7) | Cracking (C), mean score (mouse scarified skin; day +9) | Desquamation (D), mean score (mouse scarified skin; day +9) | Erythema (E), mean score (mouse scarified skin; day +9) | Cracking (C), mean score (mouse scarified skin; day +11) | Desquamation (D), mean score (mouse scarified skin; day +11) | Erythema (E), mean score (mouse scarified skin; day +11)
1.56 µg/mL: MIC (Microsporum canis; [3]) | MIC (Microsporum canis; [4]) | MIC (Tr. quinckeanum) | MIC (Tr. mentagrophytes; [9]) | MIC (Tr. mentagrophytes; [10]) | MIC (Tr. mentagrophytes; [11]) | MIC (Tr. mentagrophytes; [12]) | MIC (Tr. mentagrophytes; [14]) | MIC (Tr. rubrum; [15]) | MIC (Tr. rubrum; [16]) | MIC (Tr. rubrum; [17]) | MIC (Tr. rubrum; [18]) | MIC (Tr. rubrum; [19]) | MIC (Tr. rubrum; [20]) | MIC (Tr. rubrum; [21]) | MIC (S. cerevisiae) | MIC (C. tropicalis) | MIC (Candida albicans; [25]) | MIC (Candida albicans; [28]) | MIC (Candida albicans; [31]) | MIC (Candida albicans; [33])
0.2: Erythema (E), mean score (mouse scarified skin; day +5)
12.5 µg/mL: MIC (Microsporum canis; [1]) | MIC (Epidermoph. floccosum; [5])

— patent publication US5925369A, “Bis alkanoyl esters of carnitine having bactericidal, fungicidal and antiprotozoal activity” (priority 1996, dated 1999)
